Data taken from patent US9657360B2, “Detection of viral infection” (priority 2011, dated 2017).
Residues, ends and D or L forms follow the SMILES beside them. *: point of attachment. Cbz = O=C(OCc1ccccc1)*

What was measured:
Hendra virus = format: cell-based

SMILES | HeLa cell viability (HeLa cells) | Hendra virus replication (HeV titres) (Hendra virus)
Cc1ccc(S(=O)(=O)/C=C/C#N)cc1 [Bay11-7082] | not adversely impacting HeLa cell viability | reduced (not significantly)
CC(C)C[C@@H](C=O)NC(=O)[C@H](CC(C)C)NC(=O)[C@H](CC(C)C)NC(=O)OCc1ccccc1 [MG-132] (Cbz-Leu-Leu-Leu-aldehyde) | not adversely impacting HeLa cell viability | significantly reduced
